Columns and labels:
Conditions in all cases: Compound concentration 10 µM
[1] = biological target: T1, 5-hydroxytryptamine receptor 1A (Homo sapiens) (UniProt P08908)
T1 sequence (whole entry): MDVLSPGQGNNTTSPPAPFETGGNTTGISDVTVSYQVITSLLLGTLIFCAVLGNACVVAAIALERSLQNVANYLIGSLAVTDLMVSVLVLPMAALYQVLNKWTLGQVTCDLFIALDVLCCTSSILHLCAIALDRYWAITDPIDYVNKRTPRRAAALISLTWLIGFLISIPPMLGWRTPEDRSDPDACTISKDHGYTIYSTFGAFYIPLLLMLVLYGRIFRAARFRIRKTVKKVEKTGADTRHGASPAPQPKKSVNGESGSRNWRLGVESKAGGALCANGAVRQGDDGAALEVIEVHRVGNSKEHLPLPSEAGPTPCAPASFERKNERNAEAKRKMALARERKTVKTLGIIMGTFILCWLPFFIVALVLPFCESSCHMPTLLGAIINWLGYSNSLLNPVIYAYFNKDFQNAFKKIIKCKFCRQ

[2] = biological target: 5-hydroxytryptamine receptor 1D (Homo sapiens) (UniProt P28221)
Sequence of 5-hydroxytryptamine receptor 1D (Homo sapiens) (P28221 whole entry): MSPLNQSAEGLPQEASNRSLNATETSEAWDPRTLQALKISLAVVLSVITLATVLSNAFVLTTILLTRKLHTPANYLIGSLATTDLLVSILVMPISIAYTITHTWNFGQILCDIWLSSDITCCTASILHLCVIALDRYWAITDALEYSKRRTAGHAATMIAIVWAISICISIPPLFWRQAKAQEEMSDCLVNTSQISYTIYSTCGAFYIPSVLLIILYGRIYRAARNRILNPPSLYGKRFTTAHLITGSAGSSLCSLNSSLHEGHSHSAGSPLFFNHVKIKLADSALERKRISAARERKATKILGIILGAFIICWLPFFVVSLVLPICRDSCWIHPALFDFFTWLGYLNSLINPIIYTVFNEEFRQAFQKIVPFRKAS

[3] = biological target: Beta-1 adrenergic receptor (Homo sapiens) (UniProt P08588)
Sequence of Beta-1 adrenergic receptor (Homo sapiens) (P08588 whole entry, looked up): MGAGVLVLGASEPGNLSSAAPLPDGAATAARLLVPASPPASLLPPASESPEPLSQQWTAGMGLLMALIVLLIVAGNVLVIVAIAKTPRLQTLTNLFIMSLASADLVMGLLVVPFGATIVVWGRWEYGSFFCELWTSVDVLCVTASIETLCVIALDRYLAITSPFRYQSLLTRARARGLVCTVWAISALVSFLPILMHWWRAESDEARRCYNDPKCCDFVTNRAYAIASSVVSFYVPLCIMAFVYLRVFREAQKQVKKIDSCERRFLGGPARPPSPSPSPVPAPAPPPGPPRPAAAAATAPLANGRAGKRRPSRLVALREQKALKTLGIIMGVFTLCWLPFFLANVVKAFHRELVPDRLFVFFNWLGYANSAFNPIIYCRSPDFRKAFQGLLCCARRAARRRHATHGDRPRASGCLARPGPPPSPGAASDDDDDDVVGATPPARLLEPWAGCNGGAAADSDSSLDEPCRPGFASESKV

[4] = biological target: 5-hydroxytryptamine receptor 7 (Homo sapiens) (UniProt P34969)
Sequence of 5-hydroxytryptamine receptor 7 (Homo sapiens) (P34969 whole entry): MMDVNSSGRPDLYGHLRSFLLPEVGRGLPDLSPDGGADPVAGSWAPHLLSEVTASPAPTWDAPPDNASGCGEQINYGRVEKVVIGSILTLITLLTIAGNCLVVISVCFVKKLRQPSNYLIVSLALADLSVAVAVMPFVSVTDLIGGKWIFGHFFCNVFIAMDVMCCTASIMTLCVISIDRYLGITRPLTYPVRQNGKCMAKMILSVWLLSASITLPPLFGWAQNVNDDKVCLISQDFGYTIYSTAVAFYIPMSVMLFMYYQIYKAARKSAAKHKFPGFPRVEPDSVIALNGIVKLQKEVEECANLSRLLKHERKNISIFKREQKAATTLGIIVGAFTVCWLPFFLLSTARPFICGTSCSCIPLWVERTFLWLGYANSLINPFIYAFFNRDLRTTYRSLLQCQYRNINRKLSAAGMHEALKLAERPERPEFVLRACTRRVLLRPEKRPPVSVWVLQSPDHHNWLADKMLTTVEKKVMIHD

[5] = biological target: T2, D(4) dopamine receptor (Homo sapiens) (UniProt P21917)
T2 sequence (whole entry): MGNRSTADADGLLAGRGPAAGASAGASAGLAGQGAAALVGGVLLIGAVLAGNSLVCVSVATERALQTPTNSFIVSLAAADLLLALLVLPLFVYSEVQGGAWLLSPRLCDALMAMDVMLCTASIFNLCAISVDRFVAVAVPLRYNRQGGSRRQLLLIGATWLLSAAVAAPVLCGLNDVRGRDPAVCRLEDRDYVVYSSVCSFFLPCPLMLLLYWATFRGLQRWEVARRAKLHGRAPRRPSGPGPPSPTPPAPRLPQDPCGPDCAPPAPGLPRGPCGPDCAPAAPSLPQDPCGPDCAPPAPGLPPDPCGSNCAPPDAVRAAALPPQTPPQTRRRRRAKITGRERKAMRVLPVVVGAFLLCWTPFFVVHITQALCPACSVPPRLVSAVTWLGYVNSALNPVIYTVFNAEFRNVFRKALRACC

[6] = biological target: T3, Alpha-2A adrenergic receptor (Homo sapiens) (UniProt P08913)
T3 sequence (whole entry): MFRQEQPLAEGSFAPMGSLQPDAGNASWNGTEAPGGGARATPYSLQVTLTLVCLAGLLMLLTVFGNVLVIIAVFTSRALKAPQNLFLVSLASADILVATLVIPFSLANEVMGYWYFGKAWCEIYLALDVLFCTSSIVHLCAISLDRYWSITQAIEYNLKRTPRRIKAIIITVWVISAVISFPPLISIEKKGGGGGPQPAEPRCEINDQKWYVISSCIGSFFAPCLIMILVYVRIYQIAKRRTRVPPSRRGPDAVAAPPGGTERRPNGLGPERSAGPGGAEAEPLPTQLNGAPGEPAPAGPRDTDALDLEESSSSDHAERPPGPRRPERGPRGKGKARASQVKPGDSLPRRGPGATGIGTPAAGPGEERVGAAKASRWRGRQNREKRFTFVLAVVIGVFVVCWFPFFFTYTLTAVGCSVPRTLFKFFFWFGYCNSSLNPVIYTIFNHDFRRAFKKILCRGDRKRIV

[7] = biological target: D(1B) dopamine receptor (Homo sapiens) (UniProt P21918)
Sequence of D(1B) dopamine receptor (Homo sapiens) (P21918 whole entry): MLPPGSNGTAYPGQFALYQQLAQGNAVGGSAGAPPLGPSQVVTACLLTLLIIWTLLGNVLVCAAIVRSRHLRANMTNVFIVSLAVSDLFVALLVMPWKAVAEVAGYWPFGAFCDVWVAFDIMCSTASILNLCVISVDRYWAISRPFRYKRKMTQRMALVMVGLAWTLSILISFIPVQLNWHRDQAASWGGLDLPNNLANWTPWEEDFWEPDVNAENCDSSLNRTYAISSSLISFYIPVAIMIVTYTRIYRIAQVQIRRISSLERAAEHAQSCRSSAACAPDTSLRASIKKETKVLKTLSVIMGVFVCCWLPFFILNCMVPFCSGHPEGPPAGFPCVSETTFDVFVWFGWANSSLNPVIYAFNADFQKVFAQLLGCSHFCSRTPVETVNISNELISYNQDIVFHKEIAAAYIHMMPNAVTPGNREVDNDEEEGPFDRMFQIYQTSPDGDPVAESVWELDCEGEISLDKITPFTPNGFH

[8] = biological target: T4, Alpha-2C adrenergic receptor (Homo sapiens) (UniProt P18825)
T4 sequence (whole entry): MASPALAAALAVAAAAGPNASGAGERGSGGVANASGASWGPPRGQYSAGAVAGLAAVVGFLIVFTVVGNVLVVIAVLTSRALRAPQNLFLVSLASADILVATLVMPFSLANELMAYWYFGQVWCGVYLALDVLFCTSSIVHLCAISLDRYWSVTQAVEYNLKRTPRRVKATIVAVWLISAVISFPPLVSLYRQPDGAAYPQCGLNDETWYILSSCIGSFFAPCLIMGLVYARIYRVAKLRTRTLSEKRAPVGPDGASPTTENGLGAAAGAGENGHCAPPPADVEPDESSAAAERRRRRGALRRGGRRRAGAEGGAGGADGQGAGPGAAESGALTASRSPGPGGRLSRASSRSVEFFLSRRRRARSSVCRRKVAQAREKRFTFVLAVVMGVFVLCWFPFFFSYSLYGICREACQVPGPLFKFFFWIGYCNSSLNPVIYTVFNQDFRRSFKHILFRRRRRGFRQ

[9] = biological target: 5-hydroxytryptamine receptor 2B (Homo sapiens) (UniProt P41595)
Sequence of 5-hydroxytryptamine receptor 2B (Homo sapiens) (P41595 whole entry): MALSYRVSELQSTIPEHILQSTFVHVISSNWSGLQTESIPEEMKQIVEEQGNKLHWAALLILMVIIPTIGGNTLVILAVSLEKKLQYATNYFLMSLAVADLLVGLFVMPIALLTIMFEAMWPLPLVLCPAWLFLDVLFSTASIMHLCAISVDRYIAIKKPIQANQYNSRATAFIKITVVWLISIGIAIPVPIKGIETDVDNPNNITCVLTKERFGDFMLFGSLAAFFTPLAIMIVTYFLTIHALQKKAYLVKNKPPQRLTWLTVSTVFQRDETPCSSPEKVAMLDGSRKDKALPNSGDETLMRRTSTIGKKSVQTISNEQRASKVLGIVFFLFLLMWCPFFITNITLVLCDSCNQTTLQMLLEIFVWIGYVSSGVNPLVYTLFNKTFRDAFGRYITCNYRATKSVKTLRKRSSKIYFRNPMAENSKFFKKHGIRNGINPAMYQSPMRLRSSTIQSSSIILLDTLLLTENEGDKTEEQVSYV

[10] = biological target: 5-hydroxytryptamine receptor 1B (Homo sapiens) (UniProt P28222)
Sequence of 5-hydroxytryptamine receptor 1B (Homo sapiens) (P28222 whole entry): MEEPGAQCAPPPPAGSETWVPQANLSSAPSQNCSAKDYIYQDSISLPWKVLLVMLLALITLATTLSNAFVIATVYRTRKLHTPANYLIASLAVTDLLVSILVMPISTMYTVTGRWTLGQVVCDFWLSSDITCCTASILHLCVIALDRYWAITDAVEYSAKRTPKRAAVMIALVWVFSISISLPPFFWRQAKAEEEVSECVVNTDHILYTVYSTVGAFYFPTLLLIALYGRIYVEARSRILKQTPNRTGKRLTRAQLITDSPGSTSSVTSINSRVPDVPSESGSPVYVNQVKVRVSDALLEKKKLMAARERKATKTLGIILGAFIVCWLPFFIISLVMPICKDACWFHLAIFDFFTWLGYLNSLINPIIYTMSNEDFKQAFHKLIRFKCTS

[11] = biological target: Sodium-dependent serotonin transporter (Homo sapiens) (UniProt P31645)
Sequence of Sodium-dependent serotonin transporter (Homo sapiens) (P31645 whole entry, looked up): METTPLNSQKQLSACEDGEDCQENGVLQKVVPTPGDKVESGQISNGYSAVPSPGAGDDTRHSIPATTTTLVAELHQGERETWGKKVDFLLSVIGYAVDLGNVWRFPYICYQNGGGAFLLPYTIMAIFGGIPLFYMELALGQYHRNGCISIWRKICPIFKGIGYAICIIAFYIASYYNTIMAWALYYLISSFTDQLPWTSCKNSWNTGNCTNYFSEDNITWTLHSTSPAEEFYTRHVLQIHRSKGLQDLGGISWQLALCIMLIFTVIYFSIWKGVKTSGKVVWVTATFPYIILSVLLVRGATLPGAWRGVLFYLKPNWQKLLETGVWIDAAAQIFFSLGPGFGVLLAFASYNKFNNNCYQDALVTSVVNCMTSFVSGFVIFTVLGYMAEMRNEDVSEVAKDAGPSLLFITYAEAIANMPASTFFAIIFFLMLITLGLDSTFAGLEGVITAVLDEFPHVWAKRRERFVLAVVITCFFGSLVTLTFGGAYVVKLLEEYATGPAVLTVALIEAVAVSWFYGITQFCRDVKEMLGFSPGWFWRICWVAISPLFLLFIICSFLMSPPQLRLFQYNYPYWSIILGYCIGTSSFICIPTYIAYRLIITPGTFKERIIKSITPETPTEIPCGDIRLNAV

[12] = biological target: Histamine H1 receptor (Homo sapiens) (UniProt P35367)
Sequence of Histamine H1 receptor (Homo sapiens) (P35367 whole entry): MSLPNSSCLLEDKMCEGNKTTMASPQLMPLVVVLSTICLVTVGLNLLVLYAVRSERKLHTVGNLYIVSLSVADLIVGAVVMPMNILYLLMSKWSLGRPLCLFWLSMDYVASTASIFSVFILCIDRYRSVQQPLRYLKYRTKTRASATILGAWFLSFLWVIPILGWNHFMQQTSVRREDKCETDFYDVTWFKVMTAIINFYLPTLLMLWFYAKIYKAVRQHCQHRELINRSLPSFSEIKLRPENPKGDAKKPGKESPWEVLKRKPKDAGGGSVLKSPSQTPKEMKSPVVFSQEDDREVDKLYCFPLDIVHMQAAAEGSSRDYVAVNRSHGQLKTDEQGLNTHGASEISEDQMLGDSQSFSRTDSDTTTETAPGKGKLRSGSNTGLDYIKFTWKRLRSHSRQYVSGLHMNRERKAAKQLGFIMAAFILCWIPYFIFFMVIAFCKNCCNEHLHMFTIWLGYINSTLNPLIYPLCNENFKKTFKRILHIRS

[13] = biological target: 5-hydroxytryptamine receptor 5A (Homo sapiens) (UniProt P47898)
Sequence of 5-hydroxytryptamine receptor 5A (Homo sapiens) (P47898 whole entry): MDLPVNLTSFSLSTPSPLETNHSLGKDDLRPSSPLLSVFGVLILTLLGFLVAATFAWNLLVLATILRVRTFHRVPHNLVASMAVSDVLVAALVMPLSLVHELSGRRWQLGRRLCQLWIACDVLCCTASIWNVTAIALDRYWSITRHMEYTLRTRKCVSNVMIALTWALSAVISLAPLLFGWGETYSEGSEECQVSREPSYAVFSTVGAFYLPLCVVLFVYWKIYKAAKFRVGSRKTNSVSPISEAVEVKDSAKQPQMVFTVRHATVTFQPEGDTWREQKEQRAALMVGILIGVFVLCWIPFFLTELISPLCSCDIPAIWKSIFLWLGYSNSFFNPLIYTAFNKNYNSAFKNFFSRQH

[14] = biological target: Histamine H4 receptor (Homo sapiens) (UniProt Q9H3N8)
Sequence of Histamine H4 receptor (Homo sapiens) (Q9H3N8 whole entry): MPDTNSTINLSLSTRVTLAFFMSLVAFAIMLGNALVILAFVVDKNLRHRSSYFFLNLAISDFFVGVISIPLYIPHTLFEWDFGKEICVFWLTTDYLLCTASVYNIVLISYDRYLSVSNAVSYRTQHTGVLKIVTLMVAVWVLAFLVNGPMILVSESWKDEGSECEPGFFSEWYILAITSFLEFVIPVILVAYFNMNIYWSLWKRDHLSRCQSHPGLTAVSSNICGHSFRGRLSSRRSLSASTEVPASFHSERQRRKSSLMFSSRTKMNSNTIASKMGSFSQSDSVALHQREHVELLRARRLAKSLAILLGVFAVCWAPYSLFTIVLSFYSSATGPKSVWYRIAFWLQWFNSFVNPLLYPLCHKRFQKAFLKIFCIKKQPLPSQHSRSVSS

[15] = biological target: T5, Muscarinic acetylcholine receptor M4 (Homo sapiens) (UniProt P08173)
T5 sequence (whole entry): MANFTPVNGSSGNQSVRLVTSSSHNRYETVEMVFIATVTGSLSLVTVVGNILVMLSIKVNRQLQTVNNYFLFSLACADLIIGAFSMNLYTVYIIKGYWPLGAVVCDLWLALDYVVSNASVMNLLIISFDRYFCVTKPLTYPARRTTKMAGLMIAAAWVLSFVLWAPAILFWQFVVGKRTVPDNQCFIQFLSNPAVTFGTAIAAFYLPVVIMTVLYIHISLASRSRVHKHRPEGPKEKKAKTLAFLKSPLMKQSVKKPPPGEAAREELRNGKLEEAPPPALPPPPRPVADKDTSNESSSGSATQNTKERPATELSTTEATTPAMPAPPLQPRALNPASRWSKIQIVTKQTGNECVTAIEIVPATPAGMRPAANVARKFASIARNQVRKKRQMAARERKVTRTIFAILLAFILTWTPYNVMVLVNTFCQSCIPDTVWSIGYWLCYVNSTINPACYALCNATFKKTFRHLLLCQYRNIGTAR

SMILES	inhibition [1] [%]	inhibition [2] [%]	inhibition [3] [%]	inhibition [4] [%]	inhibition [5] [%]	inhibition [6] [%]	inhibition [7] [%]	inhibition [8] [%]	inhibition [9] [%]	inhibition [10] [%]	inhibition [11] [%]	inhibition [12] [%]	inhibition [13] [%]	inhibition [14] [%]	inhibition [15] [%]
Nc1nc(NCCc2ccc(O)cc2)nc2nc(-c3ccco3)nn12	-6.94	19.7	22.3	13.5	4.31	19	27.8	9.88	84.3	27	-5.81				
S=C(NCCCc1c[nH]cn1)NCCCN(Cc1ccc(Cl)c(Cl)c1)c1ccc(Br)cn1	43.2	149	49.2	74.9	40.9	97.5	51.4	101	94.5	93.3	95	83	96.7	99.3	
O=C(c1cc2c(cc1F)OC(c1ccc(F)cc1)(c1ccc(Cl)cc1Cl)O2)N1CCOCC1 (centres undefined)	5.52	20.9	8.99	5.01	29.6	18.1	75.9	38.9	85.6	27.6	15.9	15.4	-2.04	32.4	
CN1CC(=O)N=C1NC(=O)Nc1cccc(Cl)c1		4.68		0.17	27.2	3.42	18.3	-3.83	48.7	31.2	-8.91	-1.11	18.4	-9.18	-2.92
Oc1ccc2c3c1O[C@H]1c4[nH]c5c(c4C[C@@]4(O)[C@@H](C2)N(CC2CC2)CC[C@]314)C[C@@]1(O)[C@H]2Cc3ccc(O)c4c3[C@@]1(CCN2CC1CC1)[C@H]5O4			1.77		14.9	6.23	-8.61	15.5	14.2	13.6	-6.45	9.21	8.31	1.48	-2.79
Cc1cccc([C@H](C)c2c[nH]cn2)c1C	-0.33	145	3.18	68.1	26.9	104	11.4	99.1	51.3	31.3	-4.26		-0.76	11.3	
O=C(Cc1ccc(Cl)c(Cl)c1)N1CCCC[C@H]1CN1CCCC1	-1.23	14.8	-3.57	31.1	79.7	30.3	-9.99	24.5	35.7	10.4	33.9	23.8		-9.98	16.7
O=S1(=O)c2cccc3cccc(c23)N1CCCN1CCN(c2ccc(F)cc2)CC1	91.6		8.94	90.5	108	96.8	-1.71	98.7	93.9	31.4	81.7	96.9	58.9	5.54	1.66
Cc1nc2sccn2c(=O)c1CCN1CCC(=C(c2ccc(F)cc2)c2ccc(F)cc2)CC1	30.5		19	90.2	82.1	98.8	74.1	94.9	89.4	96	80.8	98.3	94	59	1.18

Source: ChEMBL document CHEMBL5442219
